Our source for the IC50 values is BindingDB's records for patent US20230322789 (Broadenbio, 2023).

One may read the IC50 as the concentration that inhibits the measured activity by half. Read a low IC50 as greater potency in that assay.

For this test, the target named is Mitogen-activated protein kinase kinase kinase kinase 1 (Homo sapiens, UniProt Q92918). The test is described as follows: HPK1 Kinase Activity Inhibition Assay. The method, then: 1. HPK1 Kinase Activity Inhibition Test. The kinase activity of HPK1 is manifested as activity of autophosphorylation and phosphorylation of downstream substrates. In the process of autophosphorylation, additional substrates are not required, and ATP is consumed to generate ADP. […] Transfer 2 μL of 2×[…] kinase solution to 384 reaction plate, add 1 μL of the test compound to the 384 reaction plate (Greiner, 784075), centrifuge for 1 minute (1000 rpm/min), incubate at 25° C. for 10 minutes. […] of the 4×ATP mixture to a 384 reaction plate, centrifuge for 1 minute (1000 rpm/mm), and incubate at 25° C. for 60 minutes. In the reaction system, the final concentration of DMSO was […]. Transfer 4 μL of ADP-Glo to a 384 reaction plate, centrifuge for 1 minute (1000 rpm/min), and incubate at 25° C. for 40 minutes. Transfer 8 μL detection solution to a 384 reaction plate, centrifuge for 1 minute (1000 rpm/min), and incubate at 25° C. for 40 minutes. The […] signal was read using a Biotek multi-function plate reader, and the […] (half inhibitory concentration) of the compound was obtained using a four-coefficient nonlinear fitting formula.
Chain of Mitogen-activated protein kinase kinase kinase kinase 1 (Q92918 whole entry): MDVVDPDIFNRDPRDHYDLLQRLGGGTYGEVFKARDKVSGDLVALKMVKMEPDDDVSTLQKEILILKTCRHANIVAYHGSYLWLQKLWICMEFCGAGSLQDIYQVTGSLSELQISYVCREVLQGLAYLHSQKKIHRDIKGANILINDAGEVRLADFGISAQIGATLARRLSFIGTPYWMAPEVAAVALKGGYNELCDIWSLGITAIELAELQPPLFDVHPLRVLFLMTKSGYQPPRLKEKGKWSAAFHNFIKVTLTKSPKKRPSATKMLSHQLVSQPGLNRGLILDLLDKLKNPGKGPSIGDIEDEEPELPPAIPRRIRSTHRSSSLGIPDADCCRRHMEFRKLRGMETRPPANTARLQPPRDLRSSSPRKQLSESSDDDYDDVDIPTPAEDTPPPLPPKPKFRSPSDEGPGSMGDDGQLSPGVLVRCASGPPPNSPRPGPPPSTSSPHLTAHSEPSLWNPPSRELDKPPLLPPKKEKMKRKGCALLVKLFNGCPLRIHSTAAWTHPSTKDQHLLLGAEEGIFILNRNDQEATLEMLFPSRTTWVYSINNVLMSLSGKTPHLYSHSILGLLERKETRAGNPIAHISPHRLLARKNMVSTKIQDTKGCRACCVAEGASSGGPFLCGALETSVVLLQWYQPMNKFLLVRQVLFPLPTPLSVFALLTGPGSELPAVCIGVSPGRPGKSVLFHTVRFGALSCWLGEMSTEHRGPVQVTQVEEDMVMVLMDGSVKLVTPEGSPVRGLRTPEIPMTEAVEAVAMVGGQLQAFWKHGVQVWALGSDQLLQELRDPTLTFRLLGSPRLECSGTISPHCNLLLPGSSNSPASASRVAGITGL

The compound `CCc1cccc(F)c1-n1nc2c(-c3ccc(N4CCN(CC(C)(C)O)CC4)cc3)n[nH]c2cc1=O` [US20230322789, Compound 116] registered an IC50 of less than 50 nM.

In turn, `Cc1cccc(F)c1-n1nc2c(-c3ccc(N4CCN5C(=O)OCC5C4)nc3)n[nH]c2cc1=O` (configuration not stated) [US20230322789, Compound 129] came in with an IC50 of less than 50 nM.
